pKi: −log10 of the molar value.
How the values were obtained:
[1] = target: T1, Muscarine M1 (GPCR-A-MA-ACH M1) (Homo sapiens, UniProt P11229); test: Muscarine M1 cell-based functional assay (CHO cells, Ca2+ - FLIPR Fluorimetry); conditions: human M1, CHO cells; agonist mode, reference agonist acetylcholine; read-out: Cell funct. Musc. M1 Agonism pEC50 (converted)
T1 construct: expressed in transfected cells; host or cells: CHO cells
T1 sequence (P11229 1-460): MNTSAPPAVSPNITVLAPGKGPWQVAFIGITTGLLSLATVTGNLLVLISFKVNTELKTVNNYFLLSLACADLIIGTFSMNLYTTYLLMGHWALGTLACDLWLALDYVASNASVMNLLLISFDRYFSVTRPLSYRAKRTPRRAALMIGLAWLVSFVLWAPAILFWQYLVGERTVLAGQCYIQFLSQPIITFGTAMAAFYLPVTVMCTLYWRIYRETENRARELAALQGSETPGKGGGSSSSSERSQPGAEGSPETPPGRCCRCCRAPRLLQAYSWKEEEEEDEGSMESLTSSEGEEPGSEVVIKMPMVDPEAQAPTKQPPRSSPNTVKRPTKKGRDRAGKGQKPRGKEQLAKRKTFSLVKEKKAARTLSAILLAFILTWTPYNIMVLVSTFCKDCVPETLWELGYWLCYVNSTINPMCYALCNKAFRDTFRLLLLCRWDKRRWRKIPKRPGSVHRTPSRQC

[2] = target: T2, Muscarine M4 (GPCR-A-MA-ACH M4) (Homo sapiens, UniProt P08173); test: Muscarine M4 receptor binding, 3H-Oxotremorine; conditions: human M4, CHO cells; receptor binding, ligand 6 nM, 30 min/25° C.; read-out: RB Musc. M4 3H-Oxotremorine pKi (converted)
T2 construct: expressed in transfected cells; host or cells: CHO cells
T2 sequence (P08173 1-479): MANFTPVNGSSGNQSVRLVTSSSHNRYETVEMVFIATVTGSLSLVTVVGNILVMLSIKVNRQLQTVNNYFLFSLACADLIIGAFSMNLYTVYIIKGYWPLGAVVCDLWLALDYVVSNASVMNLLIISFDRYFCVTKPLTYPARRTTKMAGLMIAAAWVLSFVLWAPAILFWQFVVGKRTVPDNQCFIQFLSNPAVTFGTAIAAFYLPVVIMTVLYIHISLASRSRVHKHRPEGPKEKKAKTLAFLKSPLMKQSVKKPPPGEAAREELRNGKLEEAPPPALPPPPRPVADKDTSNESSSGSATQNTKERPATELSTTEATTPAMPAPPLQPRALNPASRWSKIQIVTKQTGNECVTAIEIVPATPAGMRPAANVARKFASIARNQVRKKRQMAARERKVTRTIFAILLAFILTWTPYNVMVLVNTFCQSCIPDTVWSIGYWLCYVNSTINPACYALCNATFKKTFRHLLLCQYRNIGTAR
In short: (§1)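 Human M1 ([3H]-pirenzepine), M3, and M4 ([3H]-4DAMP or [3H]-oxotremorine) receptor preparations incubated with radioligand and compound, first at 10 μM, then at 10-fold lower concentrations if inhibition exceeded 40%. Bound ligand separated by glass-fibre filtration and counted by scintillation. IC50 from Hill fit, converted to Ki via Cheng-Prusoff, reported as pKi.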

[3] = target: T2, Muscarine M4 (GPCR-A-MA-ACH M4); test: Muscarine M4 receptor binding, 3H-4DAMP; conditions: human M4, CHO cells, ligand 0.2 nM, 60 min/22° C., read-out: RB Musc. M4 3H-DAMP pKi (converted)
In short: as §1

[4] = target: T3, Muscarine M2 (GPCR-A-MA-ACH M2) (Homo sapiens, UniProt P08172); test: Muscarine M2 receptor binding; conditions: human M2, CHO cells; receptor binding
T3 construct: expressed in transfected cells; host or cells: CHO cells
T3 sequence (P08172 1-466): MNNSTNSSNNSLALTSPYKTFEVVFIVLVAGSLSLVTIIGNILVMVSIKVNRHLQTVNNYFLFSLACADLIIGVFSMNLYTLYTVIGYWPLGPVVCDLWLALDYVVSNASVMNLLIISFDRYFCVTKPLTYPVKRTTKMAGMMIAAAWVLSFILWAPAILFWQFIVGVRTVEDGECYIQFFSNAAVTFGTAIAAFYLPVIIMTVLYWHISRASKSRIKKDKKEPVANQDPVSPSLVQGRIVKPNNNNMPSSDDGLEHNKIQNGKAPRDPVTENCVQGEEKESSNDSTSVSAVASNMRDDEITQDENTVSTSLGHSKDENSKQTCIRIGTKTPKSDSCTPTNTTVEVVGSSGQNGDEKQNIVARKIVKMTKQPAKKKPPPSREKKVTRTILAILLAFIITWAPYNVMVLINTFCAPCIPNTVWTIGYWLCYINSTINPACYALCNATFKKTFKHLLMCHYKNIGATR

[5] = target: T1, Muscarine M1 (GPCR-A-MA-ACH M1); test: Muscarine M1 receptor binding, 3H-Pirenzepine; conditions: human M1, CHO cells, ligand 2 nM, 60 min/22° C., read-out: RB Musc. M1 3H-Pirenzepine pKi (converted)
In short: as §1

[6] = target: T2, Muscarine M4 (GPCR-A-MA-ACH M4); test: Muscarine M4 cell-based functional assay (CHO cells, Ca2+ - Aequorin luminescence); conditions: human M4, CHO cells; agonist mode, reference agonist oxotremorine; read-out: Cell funct. Musc. M4 Agonism pEC50 (converted)
In short: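 CHO cells expressing human M4 were exposed to compound, with Ca2+ response read by aequorin luminescence. Compounds were first tested at 1 μM, then at 10-fold lower concentrations if active; stimulation or inhibition was relative to the reference agonist. EC50/IC50 came from Hill-equation fits.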

SMILES | EC50 [1] [nM] | Ki [2] [nM] | Ki [3] [nM] | pKi [4] | Ki [5] [nM] | EC50 [6] [nM]
CN1CCC=C(c2n[nH]cc2SCCC=C(F)F)C1 [Compound 22J, 3-[4-(4,4-Difluoro-but-3enylsulfanyl)-1H-pyrazol-3-yl]-1,2,5,6-tetrahydro-1-methylpyridine] | 39.8 | 63.1 | 251 | 5.50 | 631 | 251
C=CCCCSc1c[nH]nc1C1=CCCN(C)C1 [Compound 22L] | 10 | 63.1 | 100 | 5.70 | 794 | 63.1
CCOCCSc1c[nH]nc1C1=CCCN(C)C1 [Compound 22O, 3-[4-(2-Ethoxy-ethylsulfanyl)-1H-pyrazol-3-yl]-1,2,5,6-tetrahydro-1-methylpyridine] | 31.6 | 398 | 794 | 5.00 | 7940 | 631

Other lines, results leading:

EC50 [1] [nM] | Ki [2] [nM] | Ki [3] [nM] | pKi [4] | Ki [5] [nM] | EC50 [6] [nM] | SMILES
39.8 | 316 | 501 | 5.30 | 3980 | 794 | C=CCCCOc1c[nH]nc1C1=CCCN(C)C1 [Compound 33F, 3-(4-Pent-4-enyloxy-1H-pyrazol-3-yl)-1,2,5,6-tetrahydro-1-methylpyridine]
25.1 | 126 | 200 | 5.40 | 1580 | 631 | CCCCCOc1c[nH]nc1C1=CCCN(C)C1 [Compound 33G, 3-(4-Pentyloxy-1H-pyrazol-3-yl)-1,2,5,6-tetrahydro-1-methylpyridine]

Source: US8735388B2, “Heterocyclic compounds with affinity to muscarinic receptors” (Abbvie B. V. A., priority 2007, dated 2014)
